Results reported in patent EP4678638A1, “NEW E3 UBIQUITIN LIGASE LIGAND, PROTEIN DEGRADATION AGENT AND USE THEREOF” (priority 2023, dated 2024).

Assays:
MM.1S = assay: CCK-8 proliferation, MM.1S; type: cell-based; details: Homo sapiens, MM1.S; Table B6, compounds designed based on the ALK inhibitors; MM.1S cells; read-out: Inhibitory activity (IC50, nM) on tumor cell proliferation, MM.1S
Summary of the method: (§1)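 Tumor cells were cultured at 37°C with 5% CO2, seeded, and after 24h treated with compounds at 10 concentrations starting at 10µM (5-fold serial dilutions).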

[1] = target: T1, human Cereblon WT GST-tagged protein (Homo sapiens, UniProt Q96SW2); assay: CRBN binding, HTRF (CEREBLON BINDING kit); details: Table II-2, CRBN binding screening, HTRF; for inhibition at 0.5 µM: read-out: Inhibition rate (%) at 0.5µM; for inhibition at 2 µM: read-out: Inhibition rate (%) at 2 µM
T1 construct: purchased CISBIO 64BDCRBNPEH
T1 sequence (Q96SW2 whole entry): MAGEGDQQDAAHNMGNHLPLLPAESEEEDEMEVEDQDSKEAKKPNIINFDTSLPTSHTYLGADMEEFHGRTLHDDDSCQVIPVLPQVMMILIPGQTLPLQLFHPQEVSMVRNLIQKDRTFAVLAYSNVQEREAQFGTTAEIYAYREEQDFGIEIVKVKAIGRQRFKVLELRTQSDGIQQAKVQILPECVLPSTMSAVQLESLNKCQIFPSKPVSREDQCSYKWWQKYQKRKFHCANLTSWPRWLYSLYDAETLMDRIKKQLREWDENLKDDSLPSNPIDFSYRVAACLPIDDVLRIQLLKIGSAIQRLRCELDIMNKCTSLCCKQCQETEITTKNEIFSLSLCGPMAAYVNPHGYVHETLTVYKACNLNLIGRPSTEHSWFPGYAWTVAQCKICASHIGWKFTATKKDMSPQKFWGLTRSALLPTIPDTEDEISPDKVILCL
Summary of the method: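 After 3 h at room temperature, emission at 665 and 620 nm was measured in a homogeneous time-resolved fluorescence format. Compounds competed with a Thalidomide-Re probe for GST-tagged wild-type human CRBN, which was labelled with a Eu anti-GST antibody.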

ALK = target: T2, ALK (Homo sapiens, UniProt Q96SW2+Q9HC35+Q9UM73); assay: Western blot degradation of ALK (H2228 Cell); type: cell-based; details: Table D5
T2 construct: evaluate the effects of the compounds of the present disclosure on the expression of target proteins in cells; endogenous in cells; host or cells: H2228
T2 sequence (Q9HC35+Q9UM73 fused): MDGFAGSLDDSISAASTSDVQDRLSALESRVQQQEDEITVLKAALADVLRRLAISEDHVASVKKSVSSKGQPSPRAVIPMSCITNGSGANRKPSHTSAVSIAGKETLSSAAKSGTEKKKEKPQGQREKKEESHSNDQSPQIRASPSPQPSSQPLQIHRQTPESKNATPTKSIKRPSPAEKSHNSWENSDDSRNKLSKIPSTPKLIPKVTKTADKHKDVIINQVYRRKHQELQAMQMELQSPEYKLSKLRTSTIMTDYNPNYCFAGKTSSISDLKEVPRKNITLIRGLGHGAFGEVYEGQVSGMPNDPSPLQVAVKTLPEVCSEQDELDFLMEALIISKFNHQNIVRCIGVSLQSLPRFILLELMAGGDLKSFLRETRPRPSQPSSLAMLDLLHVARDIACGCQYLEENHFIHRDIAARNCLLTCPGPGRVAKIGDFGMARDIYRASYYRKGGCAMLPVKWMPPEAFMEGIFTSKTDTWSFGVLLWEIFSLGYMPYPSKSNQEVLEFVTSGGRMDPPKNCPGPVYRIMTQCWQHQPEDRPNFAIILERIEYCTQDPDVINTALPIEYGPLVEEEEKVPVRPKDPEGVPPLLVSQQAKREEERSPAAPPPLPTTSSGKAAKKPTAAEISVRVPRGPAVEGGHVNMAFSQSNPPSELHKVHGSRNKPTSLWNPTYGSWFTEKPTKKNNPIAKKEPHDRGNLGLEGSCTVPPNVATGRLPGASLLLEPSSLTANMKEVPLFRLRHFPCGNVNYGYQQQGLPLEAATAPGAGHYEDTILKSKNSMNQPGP
T2 sequence (Q96SW2 whole entry): as the sequence (Q96SW2 whole entry) above
T2 sequence (Q16531 whole entry partner): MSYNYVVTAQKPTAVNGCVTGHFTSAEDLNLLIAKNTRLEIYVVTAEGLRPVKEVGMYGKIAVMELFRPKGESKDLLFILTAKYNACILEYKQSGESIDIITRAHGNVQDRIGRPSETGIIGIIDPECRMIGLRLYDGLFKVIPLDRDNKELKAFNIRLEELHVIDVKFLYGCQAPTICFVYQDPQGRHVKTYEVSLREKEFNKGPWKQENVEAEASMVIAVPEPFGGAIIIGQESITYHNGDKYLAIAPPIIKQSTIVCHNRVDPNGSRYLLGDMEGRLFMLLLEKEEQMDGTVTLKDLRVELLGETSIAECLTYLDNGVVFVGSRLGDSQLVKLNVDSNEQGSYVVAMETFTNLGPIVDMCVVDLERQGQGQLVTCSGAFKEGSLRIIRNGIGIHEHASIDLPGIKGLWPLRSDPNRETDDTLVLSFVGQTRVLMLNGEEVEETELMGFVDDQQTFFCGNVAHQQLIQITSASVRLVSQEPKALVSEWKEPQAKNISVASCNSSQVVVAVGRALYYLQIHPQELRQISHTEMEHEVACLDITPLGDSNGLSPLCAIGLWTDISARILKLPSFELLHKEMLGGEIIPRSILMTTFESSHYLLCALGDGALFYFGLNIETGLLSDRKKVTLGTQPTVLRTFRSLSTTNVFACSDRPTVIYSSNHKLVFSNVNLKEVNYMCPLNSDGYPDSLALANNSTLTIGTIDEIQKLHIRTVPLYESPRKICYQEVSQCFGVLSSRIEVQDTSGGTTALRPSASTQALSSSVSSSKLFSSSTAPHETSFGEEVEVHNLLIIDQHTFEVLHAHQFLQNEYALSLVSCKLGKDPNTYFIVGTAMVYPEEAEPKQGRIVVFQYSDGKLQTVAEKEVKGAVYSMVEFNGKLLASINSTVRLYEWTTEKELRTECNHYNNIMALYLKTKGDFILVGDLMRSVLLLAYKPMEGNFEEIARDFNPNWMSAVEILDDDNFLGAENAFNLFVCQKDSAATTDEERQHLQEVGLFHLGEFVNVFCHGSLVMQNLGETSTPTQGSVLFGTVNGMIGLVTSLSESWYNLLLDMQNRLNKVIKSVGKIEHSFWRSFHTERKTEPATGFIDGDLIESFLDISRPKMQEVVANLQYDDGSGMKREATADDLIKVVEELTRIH
Summary of the method: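 After compound exposure, cells were harvested and lysates run on SDS-PAGE, transferred to nitrocellulose and probed with antibodies. Remaining target (%) was computed from band grayscale relative to an internal control protein and normalised; degradation (%) was 100% minus that.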

SR = assay: CCK-8 proliferation, SR; type: cell-based, Human; details: Homo sapiens; Table B6, compounds designed based on the ALK inhibitors; SR cells; read-out: Inhibitory activity (IC50, nM) on tumor cell proliferation, SR
Summary of the method: as §1

H2228 = assay: CCK-8 proliferation, NCI-H2228 (H2228); type: cell-based; details: Homo sapiens, NCI-H2228; Table B6, compounds designed based on the ALK inhibitors; H2228 cells; read-out: Inhibitory activity (IC50, nM) on tumor cell proliferation, H2228
Summary of the method: as §1

MCF7 = assay: CCK-8 proliferation, MCF7 (MCF-7); type: cell-based; details: Homo sapiens, MCF7; Table B6, compounds designed based on the ALK inhibitors; MCF-7 cells; read-out: Inhibitory activity (IC50, nM) on tumor cell proliferation, MCF-7
Summary of the method: as §1

H1975 = assay: CCK-8 proliferation, NCI-H1975 (H1975); type: cell-based, Human; details: Homo sapiens, NCI-H1975; Table B6, compounds designed based on the ALK inhibitors; H1975 cells; read-out: Inhibitory activity (IC50, nM) on tumor cell proliferation, H1975
Summary of the method: as §1

Structure (SMILES) | IC50 (MM.1S) | inhibition at 0.5 µM [1] | inhibition at 2 µM [1] | Degradation of substrate protein ALK (substrate protein remaining %) (ALK) | IC50 (SR) | IC50 (H2228) | IC50 (MCF7) | IC50 (H1975)
CCc1cc2c(cc1N1CCC(N3CCN(Cc4ccc(C5CCC(=O)NC5=O)cc4)CC3)CC1)C(C)(C)c1[nH]c3cc(C#N)ccc3c1C2=O (stereo not drawn) [GT-03762, 8-(4-(4-(4-(2,6-dioxopiperidin-3-yl)benzyl)piperazin-1-yl)piperidin-1-yl)-9-ethyl-6,6-dimethyl-11-oxo-6,11-dihydro-5H-benzo[b]carbazole-3-carbonitrile] | 500 to 1000 nM | 40 to 53% | 60 to 80% | A (A is defined as 0% ≤ substrate protein remaining % ≤ 80%) | 1 to 10 nM | – | – | –
CCc1cc2c(cc1N1CCC(N3CCN(Cc4ccc(C5CCC(=O)NC5=O)c(F)c4)CC3)CC1)C(C)(C)c1[nH]c3cc(C#N)ccc3c1C2=O (stereo not drawn) [GT-03763, 8-(4-(4-(4-(2,6-dioxopiperidin-3-yl)-3-fluorobenzyl)piperazin-1-yl)piperidin-1-yl)-9-ethyl-6,6-dimethyl-11-oxo-6,11-dihydro-5H-benzo[b]carbazole-3-carbonitrile] | 100 to 500 nM | 40 to 53% | 53 to 60% | A (A is defined as 0% ≤ substrate protein remaining % ≤ 80%) | 1 to 10 nM | – | – | –
CCc1cc2c(cc1N1CCN(Cc3ccc(C4CCC(=O)NC4=O)cc3)CC1)C(C)(C)c1[nH]c3cc(C#N)ccc3c1C2=O (stereo not drawn) [GT-07323, 8-(4-(4-(2,6-dioxopiperidin-3-yl)benzyl)piperazin-1-yl)-9-ethyl-6,6-dimethyl-11-oxo-6,11-dihydro-5H-benzo[b]carbazole-3-carbonitrile] | 500 to 1000 nM | – | – | A (A is defined as 0% ≤ substrate protein remaining % ≤ 80%) | 1 to 10 nM | 100 to 500 nM | – | –
Cc1cc(Nc2ncc(Cl)c(Nc3ccccc3S(=O)(=O)C(C)C)n2)c(OC(C)C)cc1C1CCN(Cc2cccc(N3CCC(=O)NC3=O)c2)CC1 [GT-07593, 1-(3-((4-(4-((5-chloro-4-((2-(isopropylsulfonyl)phenyl)amino)pyrimidin-2-yl)amino)-5-isopropoxy-2-methylphenyl)piperidin-1-yl)methyl)phenyl)dihydropyr imidine-2,4(1H,3H)-dione] | 500 to 1000 nM | – | – | A (A is defined as 0% ≤ substrate protein remaining % ≤ 80%) | 10 to 50 nM | 50 to 100 nM | 100 to 500 nM | –
Cc1cc(Nc2ncc(Cl)c(Nc3ccccc3S(=O)(=O)C(C)C)n2)c(OC(C)C)cc1C1CCN(Cc2ccc(C3CCC(=O)NC3=O)cn2)CC1 (stereo not drawn) [GT-07600, 3-(6-((4-(4-((5-chloro-4-((2-(isopropylsulfonyl)phenyl)amino)pyrimidin-2-yl)amino)-5-isopropoxy-2-methylphenyl)piperidin-1-yl)methyl)pyridin-3-yl)piperidine-2,6-dione] | 500 to 1000 nM | – | – | A (A is defined as 0% ≤ substrate protein remaining % ≤ 80%) | 10 to 50 nM | 50 to 100 nM | 100 to 500 nM | –
COc1cc(N2CCC(N3CCN(Cc4cncc(N5CCC(=O)NC5=O)c4)CC3)CC2)ccc1Nc1ncc(Cl)c(Nc2ccccc2P(C)(C)=O)n1 [GT-07610, 1-(5-((4-(1-(4-((5-chloro-4-((2-(dimethylphosphoryl)phenyl)amino)pyrimidin-2-yl)amino)-3-methoxyphenyl)piperidin-4-yl)piperazin-1-yl)methyl)pyridin-3-yl)dihydropyrimidine-2,4(1H,3H)-dione] | – | – | – | A (A is defined as 0% ≤ substrate protein remaining % ≤ 80%) | 1 to 10 nM | 50 to 100 nM | 500 to 1000 nM | 500 to 1000 nM
COc1cc(N2CCC(N3CCN(Cc4cncc(C5CCC(=O)NC5=O)c4)CC3)CC2)ccc1Nc1ncc(Cl)c(Nc2ccccc2P(C)(C)=O)n1 (stereo not drawn) [GT-07614, 3-(5-((4-(1-(4-((5-chloro-4-((2-(dimethylphosphoryl)phenyl)amino)pyrimidin-2-yl)amino)-3-methoxyphenyl)piperidin-4-yl)piperazin-1-yl)methyl)pyridin-3-yl)piperidine-2,6-dione] | – | – | – | A (A is defined as 0% ≤ substrate protein remaining % ≤ 80%) | 1 to 10 nM | 100 to 500 nM | 500 to 1000 nM | 500 to 1000 nM
COc1cc(N2CCC(N(C)Cc3ccc(N4CCC(=O)NC4=O)cn3)CC2)ccc1Nc1ncc(Cl)c(Nc2ccccc2P(C)(C)=O)n1 [GT-07617, 1-(6-(((1-(4-((5-chloro-4-((2-(dimethylphosphoryl)phenyl)amino)pyrimidin-2-yl)amino)-3-methoxyphenyl)piperidin-4-yl)(methyl)amino)methyl)pyridin-3-yl)dihydropyrimidine-2,4(1H,3H)-dione] | – | – | – | A (A is defined as 0% ≤ substrate protein remaining % ≤ 80%) | 10 to 50 nM | 50 to 100 nM | 100 to 500 nM | 500 to 1000 nM
COc1cc(N2CCC(N(C)Cc3ccc(N4CCC(=O)NC4=O)nc3)CC2)ccc1Nc1ncc(Cl)c(Nc2ccccc2P(C)(C)=O)n1 [GT-07691, 1-(5-(((1-(4-((5-chloro-4-((2-(dimethylphosphoryl)phenyl)amino)pyrimidin-2-yl)amino)-3-methoxyphenyl)piperidin-4-yl)(methyl)amino)methyl)pyridin-2-yl)dihydropyrimidine-2,4(1H,3H)-dione] | – | – | – | A (A is defined as 0% ≤ substrate protein remaining % ≤ 80%) | 1 to 10 nM | 50 to 100 nM | 100 to 500 nM | 100 to 500 nM
COc1cc(N2CCC(N(C)Cc3ccnc(N4CCC(=O)NC4=O)c3)CC2)ccc1Nc1ncc(Cl)c(Nc2ccccc2P(C)(C)=O)n1 [GT-07694, 1-(4-(((1-(4-((5-chloro-4-((2-(dimethylphosphoryl)phenyl)amino)pyrimidin-2-yl)amino)-3-methoxyphenyl)piperidin-4-yl)(methyl)amino)methyl)pyridin-2-yl)dihydropyrimidine-2,4(1H,3H)-dione] | 500 to 1000 nM | – | – | A (A is defined as 0% ≤ substrate protein remaining % ≤ 80%) | 1 to 10 nM | 10 to 50 nM | 100 to 500 nM | 100 to 500 nM
COc1cc(N2CCC(N(C)Cc3cc(C4CCC(=O)NC4=O)cnc3F)CC2)ccc1Nc1ncc(Cl)c(Nc2ccccc2P(C)(C)=O)n1 (stereo not drawn) [GT-07696, 3-(5-(((1-(4-((5-chloro-4-((2-(dimethylphosphoryl)phenyl)amino)pyrimidin-2-yl)amino)-3-methoxyphenyl)piperidin-4-yl)(methyl)amino)methyl)-6-fluoropyridin-3-yl)piperidine-2,6-dione] | – | – | – | A (A is defined as 0% ≤ substrate protein remaining % ≤ 80%) | 10 to 50 nM | 100 to 500 nM | 500 to 1000 nM | 500 to 1000 nM
COc1cc(N2CCC(N(C)Cc3ccc(C4CCC(=O)NC4=O)cn3)CC2)ccc1Nc1ncc(Cl)c(Nc2ccccc2P(C)(C)=O)n1 (stereo not drawn) [GT-07698, 3-(6-(((1-(4-((5-chloro-4-((2-(dimethylphosphoryl)phenyl)amino)pyrimidin-2-yl)amino)-3-methoxyphenyl)piperidin-4-yl)(methyl)amino)methyl)pyridin-3-yl)piperidine-2,6-dione] | – | – | – | A (A is defined as 0% ≤ substrate protein remaining % ≤ 80%) | 10 to 50 nM | 100 to 500 nM | 100 to 500 nM | 500 to 1000 nM
